The test system of the assay is ovarian cancer cell lines. The assay can be described thus: Cell growth inhibition (viable cell count, trypan blue exclusion) of ovarian cancer cell lines after seven days with inhibitor; logIC50 modelled against alteration status. It is filed as cell-based, human. As to conditions: for increased sensitivity to PARP inhibition: from difference of mean log IC50. Here is the method: To begin to understand the relationship between genomic, epigenetic and expression alterations and response to pathway inhibitors, a screening platform was developed for evaluating cellular proliferation in the presence of candidate therapeutic agents. As an example of the analyses that can be performed and the genotype-phenotype connections that can be obtained, IC20, IC50, and IC80 were measured after seven days of incubation for three inhibitors, GNE-493, BMN673, and MEK162, targeting PI3K, PARP, and MEK proteins, respectively (Table 11). Aggregating the molecular information from multiple platforms to the gene level, analyses was limited to genes that were altered in three or more of the 45 cell lines. Alterations that tend to be mutually exclusive between cell lines were combined, including genes in the PI3K pathway (PIK3CA and PPP2R1A) and the genes in the TGFBR pathway (SMAD3 and SMAD4). As tumors with homologous recombination deficiencies (HRD) have been known to be sensitive to PARP inhibitors, covariates summarizing the extent of genome-wide structural alterations for the PARP inhibitor BMN673 were additionally added. A priori it was hypothesized that most alterations would not modulate response to the targeted inhibitors. Implementing a Bayesian model averaging approach to variable selection as has been considered for other biomarkers (see, e.g., Viallefont et al., 2001 Statistics in Medicine 20:3215-3230; Neto et al., 2014 Pacific Symposium on Biocomputing. Pacific Symposium on Biocomputing: 27-38; and Meisner et al., 2018 Biomarker research 6:3), a positive prior probability that the coefficient for each gene is exactly zero was specified. Given the genes or combination of genes and structural variant summaries, the space of possible single- and multi-variate models for logIC50 was explored by Markov Chain Monte Carlo. Relevant posterior summaries available for each inhibitor include the probability that the regression coefficient is non-zero and the posterior distribution of the regression coefficients.
Cell lines were obtained from multiple sources (Table 1). Cells were plated into 24-well tissue culture plates at a density of 2×10^5 to 5×10^5 cells per well and grown in cell-line-specific medium without or with increasing concentrations of their respective drugs (ranging between […]).
Cells were counted on day 7 using an automated cell viability assay (Vi-CELL XR Cell Viability Analyzer, Beckman Coulter, Fullerton, Calif., USA), a video imaging system that uses an automated trypan blue exclusion protocol. Both adherent and floating viable cells were counted for treatment and control wells. Growth inhibition (GI) was calculated as a percentage of untreated controls. The log of the fractional GI was then plotted against the log of the drug concentration and the IC50 values were interpolated from the resulting linear regression curve fit (CalcuSyn; Biosoft, Ferguson, Mo., USA). Experiments were performed thrice in duplicate for each cell line.
Bayesian model averaging: models of the form
were considered where Ci denotes the logIC50 and xi;j an indicator for the alteration status (0 not altered, 1 altered) of feature j in cell line i. The regression coefficient for feature j is the product of a binary indicator zj and a real number hj. A modified g-prior was used for γ such that γj was zero whenever zj was zero. For the vector of γ's with non-zero z's, a multivariate normal prior was used. The space of the possible 2p models was explored using a Gibbs sampler. The binary features comprising the x's included somatic mutations, somatic structural variants (deletions, amplifications, in-frame fusions), methylation, and under- or over-expression. For the PARP inhibitor, the number of intra-chromosomal rearrangements and the HRD score as potential markers for HRD were additionally considered. […]

Consider `Cn1cnc2c(F)c(Nc3ccc(Br)cc3F)c(C(=O)NOCCO)cc21` [MEK-162, binimetinib], for which the increased sensitivity (cell lines with mutations or deletions in SMAD3 or SMAD4) was 89%.

As to `Cn1ncnc1[C@H]1c2n[nH]c(=O)c3cc(F)cc(c23)N[C@@H]1c1ccc(F)cc1` [BMN673, talazoparib], the “increased sensitivity to PARP inhibition” value is, setting by setting: (cell lines with MYC amplification vs without, 90% CI: 99%-64%) 93%; (cell lines with increased number of genome-wide rearrangements vs without, 90% CI, 96%-43%) 86%. For the setting “cell lines with inactivating BRCA1/2 mutations, HRD score, PARP1 expression”, the “association with sensitivity to PARP inhibition” value is recorded as “trend towards increased sensitivity to PARP inhibition but were not statistically significant”.

Take `CC(C)(O)c1cc2nc(-c3cnc(N)nc3)nc(N3CCOCC3)c2s1` [GNE-493]: under “cancer cell lines with mutations in PARP1 or PPP2R1A (so in the source)”, the increased sensitivity turned out to be 66%. In addition, the “difference in mean logIC50 by alteration status” value (cell lines with mutations in PIK3CA or PPP2R1A vs without, 7 days incubation) is on record as −0.63. The “increased sensitivity to the inhibitor” value (cell lines with mutations in PIK3CA or PPP2R1A vs without, FIG. 6B legend, 90% HPD: 5-72) is given as 48%.

The record behind these values is patent US20210355545A1, “METHODS AND MATERIALS FOR ASSESSING AND TREATING CANCER” (The Johns Hopkins University, priority 2018, published 2021).
